Consider 19 compounds from US11072634B2, “Inhibitors of transglutaminases” (Zedira GmbH, priority 2016, dated 2021).

The target in the test is T1, recombinant human tissue transglutaminase (rhTG2) (Homo sapiens, UniProt P21980).
T1 construct: purchased Zedira 1022 (so in the source); T022)
T1 sequence (P21980 1-687): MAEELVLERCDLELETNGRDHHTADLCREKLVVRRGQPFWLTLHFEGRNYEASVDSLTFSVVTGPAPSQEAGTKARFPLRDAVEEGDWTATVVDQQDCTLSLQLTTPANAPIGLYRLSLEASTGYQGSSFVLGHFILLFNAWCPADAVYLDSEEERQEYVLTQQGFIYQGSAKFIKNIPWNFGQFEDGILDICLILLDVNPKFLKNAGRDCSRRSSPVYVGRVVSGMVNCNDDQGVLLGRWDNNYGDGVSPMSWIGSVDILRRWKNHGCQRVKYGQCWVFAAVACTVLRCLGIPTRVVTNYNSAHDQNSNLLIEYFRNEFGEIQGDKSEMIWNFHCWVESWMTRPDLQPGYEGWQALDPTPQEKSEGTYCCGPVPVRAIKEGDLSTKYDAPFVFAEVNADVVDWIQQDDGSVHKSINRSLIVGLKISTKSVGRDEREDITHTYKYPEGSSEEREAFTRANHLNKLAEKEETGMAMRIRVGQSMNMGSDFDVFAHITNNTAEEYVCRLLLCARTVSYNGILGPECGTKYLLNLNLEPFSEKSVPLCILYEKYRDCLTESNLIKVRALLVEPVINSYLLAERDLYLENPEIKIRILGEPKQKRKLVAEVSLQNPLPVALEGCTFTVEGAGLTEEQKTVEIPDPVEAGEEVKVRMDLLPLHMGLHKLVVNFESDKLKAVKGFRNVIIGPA
Nature of the test: Inhibition of rec. human tissue transglutaminase (fluorescence, Abz-APE(CAD-DNP)QEA-OH). Format: biochemical. Conditions: Table 2, TG2 inhibitors. On the procedure: Method for Inhibition Studies of Rec. Human Tissue Transglutaminase (rhTG2)
250 μg lyophilized His-tagged recombinant human tissue transglutaminase (His6-rhTG2, Zedira product 1022) is reconstituted in H2O (volume depends on original volume before lyophilization) resulting in a buffer containing 10 mM Tris-HCl, 150 mM NaCl, 1 mM EDTA, 5 mM DTT, 189 mg/ml maltodextrin, pH=8.1. The rhTG2 stock solution is diluted in buffer (50 mM Tris-HCl, 7.5 mM CaCl2, 150 mM NaCl, pH=7.4) to give a working solution of 100 U/ml (based on the amine-incorporation activity measured using T036, described below).
A 10 mM inhibitor stock solution is prepared in DMSO, and from this stock solution a serial 1:2-fold dilution series is prepared, also in DMSO. Each of these initial dilutions is subsequently diluted 1:50-fold with buffer (50 mM Tris-HCl, 7.5 mM CaCl2, 150 mM NaCl, pH=7.4) to yield the final working dilutions containing 2% (v/v) DMSO. 15 μl of inhibitor working dilution are added per well of a 96 well microtiter plate. As control, 15 μl of a 2% (v/v) DMSO solution prepared using the buffer mentioned above are added per well.
600 μl of His6-rhTG2 working solution are added to 11.4 ml assay buffer (50 mM Iris-HCl, 7.5 mM CaCl2, 150 mM NaCl, 5 mM DTI, 13.4 mM glycine methylester, 50 μM Abz-APE(CAD-DNP)QEA-OH, (Zedira product A102; patent No.: EP 1781807B1), pH=7.4). From this master-mix solution, 285 μl are added per well containing the inhibitor. Increase in fluorescence is measured using λex=313 nm and λem=418 nm at 37° C. for 20 min. A slope of the increase in fluorescence between 10 and 20 min is calculated for determination of the IC50 value (inhibitor concentration at which 50% of the initial TG2 activity is blocked).
Analysis of enzymatic activity is performed by calculation of the slope of an increase in fluorescence intensity. IC50 values are calculated by plotting the enzymatic activity (as percentage from control containing 2% DMSO instead of inhibitor) against the inhibitor concentration. IC50 is defined as the inhibitor concentration blocking 50%) of initial enzyme activity.
The IC50 is the midpoint of a concentration-inhibition curve. Regarding `CNC(=O)C(=O)CC[C@H](NC(=O)c1cncn1C)C(=O)Nc1cccn(CC(=O)NCN(C)C)c1=O` [Compound E55, (S)-N1-(1-(2-((dimethylamino)methylamino)-2-oxoethyl)-2-oxo-1,2-dihydropyridin-3-yl)-N6-methyl-2-(1-methyl-1H-imidazole-5-carboxamido)-5-oxohexanediamide], the IC50 was 200 nM.

For the compound `CNC(=O)C(=O)CC[C@H](NC(=O)c1cncn1C)C(=O)Nc1cccn(CC(=O)NS(C)(=O)=O)c1=O` [Compound E51, (S)—N1-methyl-5-(1-methyl-1H-imidazole-5-carboxamido)-N6-(1-(2-(methylsulfonamido)-2-oxoethyl)-2-oxo-1,2-dihydropyridin-3-yl)-2-oxohexanediamide], the IC50 came to 760 nM.

Consider `CNC(=O)C(=O)CC[C@H](NC(=O)c1cncn1C)C(=O)Nc1cccn(CC(=O)NCOC)c1=O` [Compound E54, (S)—N1-(1-(2-(methoxymethylamino)-2-oxoethyl)-2-oxo-1,2-dihydropyridin-3-yl)-N6-methyl-2-(1-methyl-1H-imidazole-5-carboxamido)-5-oxohexanediamide], for which the IC50 amounted to 550 nM.

Consider `CCC(CC)CNC(=O)Cn1cccc(NC(=O)[C@H](CCC(=O)C(=O)NC)NS(=O)(=O)c2c(Cl)nc3sccn23)c1=O` [Compound E67, (S)-2-(6-chloroimidazo[2,1-b]thiazole-5-sulfonamido)-N1-(1-(2-(2-ethylbutylamino)-2-oxoethyl)-2-oxo-1,2-dihydropyridin-3-yl)-N6-methyl-5-oxohexanediamide], for which the IC50 is 150 nM.

As to `CCC(CC)CNC(=O)Cn1cccc(NC(=O)[C@H](CCC(=O)C(=O)NC2CC2)NC(=O)c2ccccc2)c1=O` [Compound E23, (S)-2-benzamido-N6-cyclopropyl-N1-(1-(2-(2-ethylbutylamino)-2-oxoethyl)-2-oxo-1,2-dihydropyridin-3-yl)-5-oxonexanediamide], the IC50 came to 1100 nM.

Take `CCC(CC)CNC(=O)Cn1cccc(NC(=O)[C@H](CCCCC(=O)C(=O)NC)NC(=O)c2cncn2C)c1=O` [Compound E73, (S)—N1-(1-(2-(2-ethylbutylamino)-2-oxoethyl)-2-oxo-1,2-dihydropyridin-3-yl)-N8-methyl-2-(1-methyl-1H-imidazole-5-carboxamido)-7-oxooctanediamide]: the IC50 was found to be 6300 nM.

Turning to `CCC(CC)CNC(=O)Cn1cccc(NC(=O)[C@H](CCC(=O)C(=O)OC)NC(=O)c2cncn2C)c1=O` [Compound E77, (S)-methyl 6-(1-(2-(2-ethylbutylamino)-2-oxoethyl)-2-oxo-1,2-dihydropyridin-3-ylamino)-5-(1-methyl-1H-imidazole-5-carboxamido)-2,6-dioxohexanoate], the IC50 stood at 200 nM.

As for `CCC(CC)CNC(=O)Cn1cccc(NC(=O)[C@H](CCC(=O)C(=O)NC)NC(=S)Nc2ccccc2)c1=O` [Compound E70, (S)—N1-(1-(2-(2-ethylbutylamino)-2-oxoethyl)-2-oxo-1,2-dihydropyridin-3-yl)-N6-methyl-5-oxo-2-(3-phenylthioureido)hexanediamide], the IC50 was 265 nM.

Regarding `CCC(CC)CNC(=O)Cn1cc(Cl)cc(NC(=O)[C@H](CCC(=O)C(=O)NC)NC(=O)c2cncn2C)c1=O` [Compound E45, (S)—N1-(5-chloro-1-(2-(2-ethylbutylamino)-2-oxoethyl)-2-oxo-1,2-dihydropyridin-yl)-N6-methyl-2-(1-methyl-1H-imidazole-5-carboxamido)-5-oxohexanediamide], the IC50 came out at 75 nM.

As to `CCC(CC)CNC(=O)Cn1cccc(NC(=O)[C@H](CCCC(=O)C(=O)NC)NC(=O)c2cncn2C)c1=O` [Compound E71, (S)—N1-(1-(2-(2-ethylbutylamino)-2-oxoethyl)-2-oxo-1,2-dihydropyridin-3-yl)-N7-methyl-2-(1-methyl-1H-imidazole-5-carboxamido)-6-oxoheptanediamide], the IC50 was determined as 6000 nM.

`CNC(=O)C(=O)CCC[C@H](NC(=O)c1cncn1C)C(=O)Nc1ccc(S(=O)(=O)N2CCN(C)CC2)cc1` [Compound E72, (S)—N1-methyl-6-(1-methyl-1H-imidazole-5-carboxamido)-N7-(4-(4-methylpiperazin-1-ylsulfonyl)phenyl)-2-oxoheptanediamide]: the IC50 is 6300 nM.

Regarding `CCC(CC)CNC(=O)Cn1cc(C(F)(F)F)cc(NC(=O)[C@H](CCC(=O)C(=O)NC)NC(=O)c2cncn2C)c1=O` [Compound E47, (S)—N1-(1-(2-(2-ethylbutylamino)-2-oxoethyl)-2-oxo-5-(trifluoromethyl)-1,2-dihydropyridin-3-yl)-N6-methyl-2-(1-methyl-1H-imidazole-5-carboxamido)-5-oxohexanediamide], the IC50 worked out at 80 nM.

Turning to `CCC(CC)CNC(=O)Cn1c(C)ccc(NC(=O)[C@H](CCC(=O)C(=O)NC)NC(=O)c2cncn2C)c1=O` [Compound E44, (S)—N1-(1-(2-(2-ethylbutylamino)-2-oxoethyl)-6-methyl-2-oxo-1,2-dihydropyridin-3-yl)-N6-methyl-2-(1-methyl-1H-imidazole-5-carboxamido)-5-oxohexanediamide], the IC50 was found to be 80 nM.

Take `CNC(=O)C(=O)CC[C@H](NC(=O)c1cncn1C)C(=O)Nc1cccn(CC(=O)OCCOC)c1=O` [Compound E53, (S)-2-methoxyethyl 2-(3-(2-(1-methyl-1H-imidazole-5-carboxamido)-6-(methylamino)-5,6-dioxohexanamido)-2-oxopyridin-1(2H)-yl)acetate]: the half-inhibitory concentration (IC50) amounted to 750 nM.

As for `CCC(CC)CNC(=O)Cn1cc(C)cc(NC(=O)[C@H](CCC(=O)C(=O)NC)NC(=O)c2cncn2C)c1=O` [Compound E43, (S)—N1-(1-(2-(2-ethylbutylamino)-2-oxoethyl)-5-methyl-2-oxo-1,2-dihydropyridin-yl)-N6-methyl-2-(1-methyl-1H-imidazole-5-carboxamido)-5-oxohexanediamide], the IC50 is 60 nM.

For the compound `CCC(CC)CNC(=O)Cn1cccc(NC(=O)[C@H](CCC(=O)C(N)=O)NC(=O)c2cc([N+](=O)[O-])ccc2C)c1=O` [Compound E13], the IC50 was found to be 700 nM.

In the case of `CCC(CC)CNC(=O)Cn1cccc(NC(=O)[C@H](CCC(=O)C(N)=O)NS(=O)(=O)c2cccc3c(N(C)C)cccc23)c1=O` [Compound E15, (S)-2-(5-(dimethylamino)naphthalene-1-sulfonamido)-N1-(1-(2-(2-ethylbutylamino)-2-oxoethyl)-2-oxo-1,2-dihydropyridin-3-yl)-5-oxonexanediamide], the 50% inhibitory concentration (IC50) came out at 6000 nM.

For `CCC(CC)CNC(=O)Cn1cccc(NC(=O)[C@H](CCC(=O)C(=O)OCCOC)NC(=O)c2cncn2C)c1=O` [Compound E78, (S)-2-methoxyethyl 6-(1-(2-(2-ethylbutylamino)-2-oxoethyl)-2-oxo-1,2-dihydropyridin-3-ylamino)-5-(1-methyl-1H-imidazole-5-carboxamido)-2,6-dioxohexanoate], the IC50 amounted to 400 nM.

Take `CCC(CC)CNC(=O)Cn1cccc(NC(=O)[C@H](CCC(=O)C(=O)NC(C)(C)C)NC(=O)c2cncn2C)c1=O` [Compound E21, (S)—N1-tert-butyl-N6-(1-(2-(2-ethylbutylamino)-2-oxoethyl)-2-oxo-1,2-dihydropyridin-3-yl)-5-(1-methyl-1H-imidazole-5-carboxamido)-2-oxonexanediamide]: the half-maximal inhibitory concentration (IC50) was 5000 nM.
